# Values joined by “and” are separate entries in the source; they are usually repeats but may differ in a detail not shown here. Identical values can stand only once. “Also recorded” adds a separate entry of the source. Like-named read-outs stand apart in the source and are kept apart here.
# What was measured:
# [1] = biological target: T1, phosphorylated IRE1α (p-IRE1α) (Homo sapiens, UniProt O75460); assay: FRET-based IRE1α RNase activity assay, phosphorylated IRE1α; assay type: biochemical
# T1 construct: Human IRE1α kinase and RNase domain (residues 547–977) was subcloned into pLIB plasmid; His tag (with TEV cleavage site) (N, cleaved yes); made in house; host or cells: Sf9 insect cells, baculovirus (Bac-to-Bac)
# T1 sequence (O75460 547-977): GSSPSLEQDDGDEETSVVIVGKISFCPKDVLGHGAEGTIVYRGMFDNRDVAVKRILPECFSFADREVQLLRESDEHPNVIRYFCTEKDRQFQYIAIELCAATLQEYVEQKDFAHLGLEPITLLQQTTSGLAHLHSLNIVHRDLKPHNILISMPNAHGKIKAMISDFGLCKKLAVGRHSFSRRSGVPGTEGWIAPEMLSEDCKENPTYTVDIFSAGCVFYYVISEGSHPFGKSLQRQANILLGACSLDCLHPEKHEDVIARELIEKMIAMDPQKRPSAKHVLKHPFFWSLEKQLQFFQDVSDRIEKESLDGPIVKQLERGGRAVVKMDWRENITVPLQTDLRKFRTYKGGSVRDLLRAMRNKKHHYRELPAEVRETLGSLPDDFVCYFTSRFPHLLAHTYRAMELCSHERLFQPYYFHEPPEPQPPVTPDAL
# Procedure: (§1) Human IRE1α kinase and RNase domain (residues 547–977) was subcloned into pLIB plasmid with a His tag and TEV cleavage site, and expressed using Bac-to-Bac expression system. The primers used are listed in Supplementary Table S3. The protein purification was performed following established procedures. Briefly, Sf9 cells were infected with baculovirus and incubated at 27 °C 110 rpm for 72 h. The cells were collected by centrifugation at 4000 × g for 15 min and the cell pellet was resuspended in lysis buffer (50 mM HEPES pH 7.5, 300 mM NaCl, 10% glycerol, 1 mM MgCl2, 1 mM TCEP, 5 mM imidazole), then supplemented with 1:10,000 benzonase (Sigma, E1014), 1 tablet/25 mL […]™ Protease Inhibitor Cocktail tablets (Sigma, S8830) and 1 mM PMSF before lysed by sonication at 4 °C. […] The protein elution was incubated with TEV protease to remove His tag at 4 °C overnight. Then the sample was diluted 1:6 in buffer (50 mM HEPES pH 7.5, 1 mM TCEP, 5% glycerol) and loaded onto a 5 mL pre-packaged Q HP anion exchange column (Cytiva, HiTrap Q HP) pre-equilibrated with QA buffer (50 mM HEPES pH 7.5, 50 mM NaCl, 1 mM TCEP, 5% glycerol). The unphosphorylated and phosphorylated protein was separated by eluting the protein with a very shallow gradient with 0-30% buffer QB (50 mM HEPES pH 7.5, 1 M NaCl, 1 mM TCEP, 5% glycerol) over 80 CV. Different peaks were collected separately and verified by LC-MS. The fully phosphorylated fraction was collected and further purified by size exclusion chromatography (Cytiva, HiLoad 16/600 Superdex 200 pg,) with SEC buffer (25 mM HEPES pH 7.5, 250 mM NaCl, 1 mM TCEP, 10% glycerol) and fractioned as monomeric peak. The rest protein fraction from the Q HP anion exchange column was incubated with Lambda protein phosphatase (New England BioLabs, P0753S) overnight at 4 °C, the dephosphorylation was confirmed by LC-MS. The unphosphorylated protein was further purified by size exclusion chromatography with the SEC buffer described above. The purified phosphorylated (p-IRE1α) and dephosphorylated (IRE1α) protein aliquots were stored at −80 °C for future usage.
# (§2) The dual-labeled RNA substrate with a FAM at 5’ and the BHQ-1 at 3’ containing the XBP1 sequence (5′FAM-[…]-3′BHQ1) was purchased from Integrated DNA Technologies (IDT). The FRET-based IRE1α RNase activity assay was carried out in reaction buffer containing 20 mM HEPES pH 7.5, 50 mM KOAc, 1 mM MgOAc2, 1 mM DTT, 0.05% v/v TritonX-100, at a total reaction volume of 20 μL in a 384-well black plate (4514, Corning). For unphosphorylated IRE1α (IRE1α), a final concentration of 40 nM IRE1α protein and 100 nM RNA substrate was used. For phosphorylated IRE1 (p-IRE1α), a final concentration of 4 nM p-IRE1α protein and 200 nM RNA substrate was used. The indicated compound and IRE1α protein were incubated for 30 min at room temperature before the substrate was added to the reaction. The plate was then kinetically read over one hour at room temperature using a TECAN Spark plate reader. The measurement was carried out using the fluorescence top reading mode at the excitation wavelength of 485 nm and the emission wavelength of 535 nm with a 10 nm excitation and emission bandwidth. The linear part of the reaction curve was adopted and fitted with sample linear regression to obtain the slope, and the slope was adopted to reflect the reaction rate. The inhibition % was calculated by using the equation: inhibition% = 100 × (slope of DMSO control – slope of the sample)/(slope of DMSO control – slope of blank control), DMSO control: DMSO with protein and RNA substrate; Blank control: DMSO with RNA substrate. The IC50 values were calculated using the concentration-response model in GraphPad Prism 9.
# [2] = biological target: T2, dephosphorylated IRE1α (547–977) (Homo sapiens, UniProt O75460); assay: FRET-based IRE1α RNase activity assay, dephosphorylated IRE1α; assay type: biochemical; conditions: for IC50: FRET assay; for inhibition at 50 µM: read-out: IRE1α inhibition%
# T2 construct: Human IRE1α kinase and RNase domain (residues 547–977) was subcloned into pLIB plasmid; His tag (with TEV cleavage site) (N, cleaved yes); made in house; host or cells: Sf9 insect cells, baculovirus (Bac-to-Bac)
# T2 sequence (O75460 547-977): as above
# Procedure: as §1
# as §2, with “9. […]” for “9.”
# [3] = FRET assay, RNase activity, mean (± SEM), read-out: p-IRE1α IC50
# [4] = FRET assay, source data, unit from Fig. 3, read-out: p-IRE1a IC50, individual replicates (n1-n4)
# [5] = RNase activity, mean (± SEM), read-out: IRE1α IC50
# [6] = source data, unit from Fig. 3 / sheet Fig. 2b, read-out: IRE1a IC50, individual replicates (n1-n4)
# [7] = FRET assay at 50 μM, mean (± SEM), read-out: p-IRE1α inhibition%
# [8] = FRET assay at 50 μM, mean (± SEM)
compound,measurement,setting,value
Cc1c(CCC(=O)O)c2cc(-c3ccncc3)ccc2n1C(=O)c1ccccc1 [IA153],IC50,[1]; [3],11.6 µM
same,IC50,[1]; [4],12.4 µM and 15.4 µM and 6.99 µM
same,IC50,[2]; [5],2.16 µM
same,IC50,[2]; [6],2.9 µM and 1.77 µM and 1.82 µM
Cc1c(CCC(=O)O)c2cc(-c3cn[nH]c3)ccc2n1C(=O)c1ccccc1 [IA158],IC50,[1]; [3],2.34 µM
same,IC50,[1]; [4],3.18 µM and 1.5 µM
same,IC50,[2]; [5],0.7 µM
same,IC50,[2]; [6],0.708 µM and 0.693 µM
Cc1c(CCC(=O)O)c2cc(-c3ccccc3C#N)ccc2n1C(=O)c1ccccc1 [IA159],IC50,[1]; [3],28.3 µM
same,IC50,[1]; [4],34.9 µM and 21.7 µM
same,IC50,[2]; [5],6.22 µM and 6.23 µM
same,IC50,[2]; [6],5.53 µM and 6.93 µM
CC(=O)c1ccc(-c2ccc3c(c2)c(CCC(=O)O)c(C)n3C(=O)c2ccccc2)s1 [IA162],IC50,[1]; [3],15.1 µM
same,IC50,[1]; [4],15.8 µM and 14.4 µM
same,IC50,[2]; [5],4.73 µM
same,IC50,[2]; [6],3.28 µM and 6.18 µM
Cc1c(CCC(=O)O)c2cc(-c3ccc(O)cc3)ccc2n1C(=O)c1ccccc1 [IA163],p-IRE1α IC50,"[1]; FRET assay, RNase activity, mean (± SEM)",IC₅₀ not reached
same,IC50,[1]; [3],> 20 µM
same,IC50,[2]; [5],7.41 µM
same,IC50,[2]; [6],6.38 µM and 8.45 µM
Cc1c(CCC(=O)O)c2cc(Br)ccc2n1Cc1ccccc1 [IA164],effect on p-IRE1α RNase activity in the FRET assay,[1],did not show activity
same,inhibition(%),"[1]; p-IRE1a, 0.000847 μM",-3.310% and -10.444% and -6.973% and -11.312%
same,inhibition(%),"[1]; p-IRE1a, 0.00254 μM",-11.263% and -6.154% and -5.913% and -3.985%
same,inhibition(%),"[1]; p-IRE1a, 0.007621 μM",-3.888% and -1.575% and -3.262% and -6.925%
same,inhibition(%),"[1]; p-IRE1a, 0.022862 μM",-9.528% and -12.854% and -7.504% and -7.552%
same,inhibition(%),"[1]; p-IRE1a, 0.205761 μM",-14.011% and -13.481% and -9.046% and -6.299%
same,inhibition(%),"[1]; p-IRE1a, 0.617284 μM",-12.951% and -9.625% and -7.070% and -4.226%
same,inhibition(%),"[1]; p-IRE1a, 1.85185 μM",-7.504% and -4.708% and -6.877% and -5.527%
same,inhibition(%),"[1]; p-IRE1a, 5.55556 μM",-7.793% and -8.660% and -17.192% and -15.216%
same,effect on IRE1α RNase activity in the FRET assay,[2],did not show activity; also recorded: complete loss of activity
same,inhibition at 5.55556 µM,"[2]; IRE1a, 5.55556 μM",11.3%
same,inhibition(%),"[2]; IRE1a, 5.55556 μM",18.332% and 22.563% and 19.929%
Cc1c(CCC(=O)O)c2cc(Br)ccc2n1C(=O)C1CCCCC1 [IA165],inhibition(%),"[1]; p-IRE1a, 0.000847 μM",-0.707% and 0.787% and -7.504% and -5.865%
same,inhibition(%),"[1]; p-IRE1a, 0.00254 μM",-6.491% and -3.358% and -4.226% and 3.246%
same,inhibition(%),"[1]; p-IRE1a, 0.007621 μM",-0.418% and -0.611% and -4.226% and 0.305%
same,inhibition(%),"[1]; p-IRE1a, 0.068587 μM",0.450% and 2.715% and -3.792% and 0.305%
same,inhibition(%),"[1]; p-IRE1a, 0.205761 μM",1.992% and 4.885% and 4.065% and 5.463%
same,inhibition at 1.85185 µM,"[1]; p-IRE1a, 1.85185 μM",34%
same,inhibition(%),"[1]; p-IRE1a, 1.85185 μM",36.843% and 31.203% and 36.891%
same,inhibition at 5.55556 µM,"[1]; p-IRE1a, 5.55556 μM",58.9%
same,inhibition(%),"[1]; p-IRE1a, 5.55556 μM",56.028% and 61.836% and 59.894%
same,inhibition at 16.6667 µM,"[1]; p-IRE1a, 16.6667 μM",90.7%
same,inhibition(%),"[1]; p-IRE1a, 16.6667 μM",88.753% and 83.846% and 83.803%
same,inhibition(%),"[1]; p-IRE1a, 50 μM",95.227% and 95.680% and 96.051%
same,inhibition at 50 µM,"[1]; p-IRE1a, 50 μM, read-out: inhibition(%)",94.7%
same,effect on IRE1α RNase activity in the FRET assay,[2],decreased the inhibitory activity
same,inhibition at 0.617284 µM,"[2]; IRE1a, 0.617284 μM",36.9%
same,inhibition(%),"[2]; IRE1a, 0.617284 μM",46.932% and 53.398% and 47.875%
same,inhibition at 1.85185 µM,"[2]; IRE1a, 1.85185 μM",53.7%
same,inhibition(%),"[2]; IRE1a, 1.85185 μM",60.820% and 65.775% and 59.822%
same,inhibition at 5.55556 µM,"[2]; IRE1a, 5.55556 μM",76%
same,inhibition(%),"[2]; IRE1a, 5.55556 μM",76.919% and 67.673% and 77.366%
same,inhibition(%),"[2]; IRE1a, 16.6667 μM",82.061% and 76.393% and 74.507%
same,inhibition at 16.6667 µM,"[2]; IRE1a, 16.6667 μM, read-out: inhibition(%)",75.9%
same,inhibition(%),"[2]; IRE1a, 50 μM",53.077% and 49.468% and 70.447% and 68.706%
"COc1ccc2c(c1)c(CC(=O)O)c(C)n2C(=O)c1ccc(Cl)cc1 [Indomethacin, indomethacin, reference compound]",inhibition at 50 µM,[1]; [7],< 30%
same,IRE1α inhibition%,"[2]; FRET assay at 50 μM, mean (± SEM), 50 µM",< 30%
same,inhibition at 50 µM,[2]; [8],≤ 50%
CCc1c(C)n(C(=O)c2ccc(Cl)cc2)c2ccc(OC)cc12 [cms01],inhibition at 50 µM,[1]; [7],< 30%
same,inhibition at 50 µM,[2]; [8],< 30%
